Counter-ions that a name gives are not always drawn.
These molecules were tested against T1, guinea-pig B2 receptor (Cavia porcellus, UniProt O70526) (assay: Inhibition of [3H]-bradykinin binding to guinea-pig ileum membranes). Conditions: test compound at 10^-6 M, [3H]-bradykinin 120 pM, 90 min at 20° C., read-out: Activity (percentage inhibition of the binding of [3H]-bradykinin).
T1 construct: Ileum segments are isolated from male guinea-pigs; tissue Iffa Credo, l'Arbresle, France (animals); host or cells: ileum membranes of male Dunkin-Hartley guinea-pigs
T1 sequence (O70526 1-372): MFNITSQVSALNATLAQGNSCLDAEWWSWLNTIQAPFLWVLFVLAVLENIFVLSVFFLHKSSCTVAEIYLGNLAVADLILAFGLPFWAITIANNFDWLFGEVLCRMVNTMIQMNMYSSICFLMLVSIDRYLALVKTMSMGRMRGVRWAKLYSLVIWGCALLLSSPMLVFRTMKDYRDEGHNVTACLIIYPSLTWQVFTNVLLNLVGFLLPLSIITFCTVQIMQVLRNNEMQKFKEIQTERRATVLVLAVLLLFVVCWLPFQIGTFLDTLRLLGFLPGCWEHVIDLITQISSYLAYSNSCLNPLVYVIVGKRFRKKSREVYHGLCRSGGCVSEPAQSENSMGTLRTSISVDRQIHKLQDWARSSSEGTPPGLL
Description: The following pharmacological test is used: Ileum segments are isolated from male guinea-pigs [of the Dunkin-Hartley strain (Iffa Credo, l'Arbresle, France)] and ground in the following TES buffer: TES 25 mM, 1,10-phenanthroline 1 mM (pH 6.8), bacitracin 140 μg/ml, BSA 1 g/l. The membranes are then isolated by centrifugation (18,000 rpm; 20 min; 4° C.). The binding studies are carried out in this TES buffer using [^3 H]-bradykinin (120 pM) and 50 μg of membrane protein per test (final volume 500 μl) with an equilibrium time of 90 min at 20° C. The percentage inhibition of the binding of [^3 H]-bradykinin is then determined in the presence of one of the test compounds according to the invention at a concentration of 10^-6 M.
The results obtained from these tests (shown as "activity") are collated in Table I below with reference to the Examples given in the description. In this Table, Pos indicates the position of the amidine group on the aromatic (or heteroaromatic) ring relative to the group B; in the "Salt" column, Ch1 denotes that the compound is in the form of the hydrochloric acid salt and Ms denotes that it is in the form of the methanesulfonic acid salt.

SMILES | inhibition at 1 µM [%]
Cc1cc(C)c2cccc(OCc3c(Cl)ccc(S(=O)(=O)N4CCC[C@H]4C(=O)NCCNC(=O)c4ccc(C(=N)N)cc4)c3Cl)c2n1 [Example 2, 1-[[3-[(2,4-Dimethylquinolin-8-yl)oxymethyl]-2,4-dichlorophenyl]sulfonyl]-N-[2-[[4-(aminoiminomethyl)phenyl]carbonylamino]ethyl]-2(S)-pyrrolidine-carboxamide dihydrochloride] | 92
Cc1cc(C)c2cccc(OCc3c(Cl)ccc(S(=O)(=O)N4CCC[C@H]4C(=O)NCCNC(=O)COc4ccc(C(=N)N)cc4)c3Cl)c2n1 [Example 4, 1-[[3-[(2,4-Dimethylquinolin-8-yl)oxymethyl]-2,4-dichlorophenyl]sulfonyl]-N-[2-[[2-[4(aminoiminomethyl)phenoxy]-1-oxoethyl]amino]ethyl]-2(S)-pyrrolidinecarboxamide dihydrochloride] | 95.5
Cc1cc(C)c2cccc(OCc3c(Cl)ccc(S(=O)(=O)N4CCC[C@H]4C(=O)NCCCNC(=O)c4ccc(C(=N)N)cc4)c3Cl)c2n1 [Example 6, 1-[[3-[(2,4-Dimethylquinolin-8-yl)oxymethyl]-2,4-dichlorophenyl]sulfonyl]-N-[3-[[4-(aminoiminomethyl)phenyl]carbonylamino]propyl]-2(S)-pyrrolidine-carboxamide dihydrochloride] | 99
Cc1cc(C)c2cccc(OCc3c(Cl)ccc(S(=O)(=O)N4CCC[C@H]4C(=O)NCCCNC(=O)Cc4ccc(C(=N)N)cc4)c3Cl)c2n1 [Example 8, 1-[[3-[(2,4-Dimethylquinolin-8-yl)oxymethyl]-2,4-dichlorophenyl]sulfonyl]-N-[-[[2-[4(aminoiminomethyl)phenyl]-1-oxoethyl]amino]propyl]-2(S)-pyrrolidinecarboxamide dihydrochloride] | 97.5

The next lines start with the values.

inhibition at 1 µM [%] | SMILES
98.8 | Cc1cc(C)c2cccc(OCc3c(Cl)ccc(S(=O)(=O)N4CCC[C@H]4C(=O)NCCCNC(=O)COc4ccc(C(=N)N)cc4)c3Cl)c2n1 [Example 10, 1-[[3-[(2,4-Dimethylquinolin-8-yl)oxymethyl]-2,4-dichlorophenyl]sulfonyl]-N-[3-[[2-[4-(aminoiminomethyl)phenoxy]-1-oxoethyl]amino]propyl]-2(S)-pyrrolidinecarboxamide dihydrochloride]
97 | CCN(CCCNC(=O)[C@@H]1CCCN1S(=O)(=O)c1ccc(Cl)c(COc2cccc3c(C)cc(C)nc23)c1Cl)C(=O)c1ccc(C(=N)N)cc1 [Example 14, 1-[[3-[(2,4-Dimethylquinolin-8-yl)oxymethyl]-2,4-dichlorophenyl]sulfonyl]-N-3-[[ethyl]-[[4-(aminoiminomethyl)phenyl]carbonyl]amino]propyl]-2(S)-pyrrolidine carboxamide dihydrochloride]
100 | Cc1cc(C)c2cccc(OCc3c(Cl)ccc(S(=O)(=O)N4CCC[C@H]4C(=O)NCCCN(C)C(=O)c4ccc(C(=N)N)cc4)c3Cl)c2n1 [Example 16, 1-[[3-[(2,4-Dimethylquinolin-8-yl)oxymethyl]-2,4-dichlorophenyl]sulfonyl]-N-[3-[[methyl]-[[4(aminoiminomethyl)phenyl]carbonyl]amino]propyl]-2(S)-pyrrolidinecarboxamide dihydrochloride]
98 | Cc1cc(C)c2cccc(OCc3c(Cl)ccc(S(=O)(=O)N4CCC[C@H]4C(=O)NCCCCNC(=O)c4ccc(C(=N)N)cc4)c3Cl)c2n1 [Example 19, 1-[[3-[(2,4-Dimethylquinolin-8-yloxymethyl]-2,4-dichlorophenyl]sulfonyl]-N-[4-[[4-(aminoiminomethyl)phenyl]carbonylamino]butyl]-2(S)-pyrrolidinecarboxamidedihydrochloride]
100 | Cc1cc(C)c2cccc(OCc3c(Cl)ccc(S(=O)(=O)N4CCC[C@H]4C(=O)NCCCCCNC(=O)c4ccc(C(=N)N)cc4)c3Cl)c2n1 [Example 21, 1-[[3-[(2,4-Dimethylquinolin-8-yl)oxymethyl]-2,4-dichlorophenyl]sulfonyl]-N-[5-[[4-(aminoiminomethyl)phenyl]carbonylamino]pentyl]-2(S)-pyrrolidinecarboxamide dihydrochloride]
